Among the test systems are RPMI-8226; IGROV-1; COLO 205; LOX IMVI; HOP-92; OVCAR-5; K562; A549; Hs-578T; SF-295; HL-60; RXF 393; SK-OV-3; SF-268; M14; MDA-N; HT-29; UACC-257; 786-0; A498.
Assay in all cases: DTP human tumour cell line panel, 48 h

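Dose response: 5 concentrations. Exposure: 48 h. Format: 96-well plates. Endpoint: linear interpolation; highest concentration if not reached. GI50 is the concentration that inhibits growth by half.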 The source made the active and inactive calls. No stated cut-off is given here; in the data, active = GI50 up to about 1.1 µM and inactive = higher. Bounds are passed on as bounds.

As a reminder, the GI50 is the concentration giving 50% growth inhibition. Turning to `COc1ccc(C2SC(=N)Nc3c2c(C)nn3C(=O)c2ccc(Cl)cc2)cc1OC` (stereo not given), the GI50 in the assay with RPMI-8226, with IGROV-1, in the assay on COLO 205, in the assay with LOX IMVI, with HOP-92 and with OVCAR-5 was > 10 µM (inactive) throughout. Also, the GI50 with K562, in the assay on A549, with Hs-578T, with SF-295, in the assay on HL-60 and with RXF 393 was > 10 µM (inactive) in each case. Further, the GI50 in the assay on SK-OV-3, in the assay with SF-268, with M14, in the assay with MDA-N, with HT-29 and with UACC-257 was > 10 µM (inactive) each time. Besides, the GI50 with 786-0 was > 10 µM (inactive).

For `CCN(CC)CCN(/C(=N/c1ccccc1)N1CCCCC1)c1ccccc1`, the GI50 was 2.54 µM (inactive) in the assay with RPMI-8226; 2.75 µM (inactive) with IGROV-1; 2.3 µM (inactive) in the assay on COLO 205; 3.14 µM (inactive) with LOX IMVI; 2.18 µM (inactive) in the assay on K562; 14.8 µM (inactive) in the assay with A549. Further, the GI50 in the assay on Hs-578T is 10.3 µM (inactive); with SF-295, 3.62 µM (inactive); in the assay on HL-60, 1.63 µM (inactive); with RXF 393, 17.7 µM (inactive); in the assay with SK-OV-3, 11.9 µM (inactive); in the assay on SF-268 it was 27.6 µM (inactive). The GI50 with M14 was 6.34 µM (inactive); in the assay with MDA-N, 1.78 µM (inactive); in the assay with HT-29, 1.71 µM (inactive); in the assay with UACC-257, 10.6 µM (inactive); in the assay on 786-0, 26.1 µM (inactive).

Turning to `COc1cc2c(c(OC)c1OC)C(=O)[C@@H](O)[C@H]2NC(N)=O`, the GI50 in the assay with RPMI-8226, in the assay on IGROV-1, in the assay with COLO 205, in the assay on LOX IMVI, with OVCAR-5 and in the assay on K562 was > 100 µM (inactive) each time. Further, the GI50 in the assay with A549, with Hs-578T, with SF-295, in the assay with HL-60, in the assay on RXF 393 and with SF-268 was > 100 µM (inactive) each time. Also, the GI50 in the assay with M14, in the assay on MDA-N, with HT-29, with UACC-257 and in the assay on 786-0 was > 100 µM (inactive) each time.

Take `C[C@H]1O[C@@H](C(C)(C)C)OC(=O)[C@@H]1C(OC(=O)c1ccccc1)c1cccc2ccccc12` (stereo not given in full): the GI50 with RPMI-8226, in the assay on IGROV-1, in the assay on COLO 205, with LOX IMVI, in the assay with OVCAR-5 and with K562 was > 100 µM (inactive) throughout. In addition, the GI50 is > 100 µM (inactive) with A549; 40.7 µM (inactive) with Hs-578T; > 100 µM (inactive) in the assay with SF-295; > 100 µM (inactive) in the assay on RXF 393; > 100 µM (inactive) in the assay on SK-OV-3; > 100 µM (inactive) in the assay on SF-268. Also, the GI50 in the assay with M14, in the assay on MDA-N, in the assay on HT-29, with UACC-257 and in the assay with 786-0 was > 100 µM (inactive) throughout.

`Clc1cc(OCc2nn3c(Cc4ccccc4)nnc3s2)ccc1OCc1nn2c(Cc3ccccc3)nnc2s1`: the GI50 is 49.7 µM (inactive) with RPMI-8226; 30.6 µM (inactive) in the assay with IGROV-1; > 100 µM (inactive) in the assay with COLO 205; 93.8 µM (inactive) in the assay on LOX IMVI; 17.3 µM (inactive) in the assay with HOP-92; 51.5 µM (inactive) with OVCAR-5. The GI50 in the assay on K562 is 95.9 µM (inactive); in the assay on A549, 32.2 µM (inactive); with Hs-578T it was 48.9 µM (inactive); with SF-295, 19.5 µM (inactive); in the assay with HL-60, 50.2 µM (inactive); with RXF 393 it was 27.7 µM (inactive). The GI50 with SK-OV-3 was 26.7 µM (inactive); in the assay on SF-268, 29.8 µM (inactive); in the assay on M14, 87.7 µM (inactive); in the assay on HT-29, 79.1 µM (inactive); with A498 it was 29.1 µM (inactive); in the assay with UACC-257 it was > 100 µM (inactive). Also, the GI50 in the assay on 786-0 is 19.5 µM (inactive).

As to `CC(=O)OCC1OC(OC(C)=O)C(Nc2ncc(-c3ccc(C)cc3)s2)C(OC(C)=O)C1OC(C)=O` (stereo not given), the GI50 is 12.9 µM (inactive) in the assay with RPMI-8226; 17.3 µM (inactive) with IGROV-1; 17.7 µM (inactive) with COLO 205; 13.2 µM (inactive) in the assay on LOX IMVI; 43.1 µM (inactive) with OVCAR-5; 15.7 µM (inactive) in the assay with K562. In addition, the GI50 in the assay with A549 is 18.6 µM (inactive); in the assay on Hs-578T, 22.5 µM (inactive); in the assay on SF-295 it was 22.9 µM (inactive); with HL-60, > 10 µM (inactive); in the assay on RXF 393 it was 16.1 µM (inactive); in the assay with SK-OV-3 it was 44.1 µM (inactive). The GI50 with SF-268 was 16.5 µM (inactive); in the assay on M14 it was 18.1 µM (inactive); with MDA-N, 18.4 µM (inactive); in the assay on HT-29, 21.2 µM (inactive); in the assay on UACC-257 it was 20.1 µM (inactive); in the assay on 786-0 it was 16.6 µM (inactive).

Regarding `O=C(/C=C/c1ccc(F)c(F)c1)OCCc1ccccc1`, the GI50 in the assay with RPMI-8226 is 77.6 µM (inactive); with IGROV-1 it was > 100 µM (inactive); in the assay on COLO 205, > 100 µM (inactive); in the assay with LOX IMVI, 89.9 µM (inactive); in the assay with OVCAR-5, > 100 µM (inactive); in the assay with K562, 51.3 µM (inactive). Besides, the GI50 with A549, in the assay on Hs-578T, in the assay with SF-295, with HL-60, in the assay with SK-OV-3 and in the assay on SF-268 was > 100 µM (inactive) each time. The GI50 with M14 was > 100 µM (inactive); with MDA-N, 73.5 µM (inactive); in the assay with HT-29 it was 34.5 µM (inactive); with UACC-257, > 100 µM (inactive); in the assay on 786-0, > 100 µM (inactive).

Turning to `CCCCCCCCCCCCCCCCOP(=O)([O-])OCC[N+](C)(C)C1CC(C)(C)N(O)C(C)(C)C1`, the GI50 in the assay on COLO 205, in the assay with HOP-92, in the assay with OVCAR-5, in the assay with A549, in the assay on Hs-578T and in the assay with SF-295 was > 100 µM (inactive) in each case. Moreover, the GI50 in the assay with RXF 393, in the assay on SK-OV-3, in the assay with SF-268, in the assay on M14, with HT-29 and with A498 was > 100 µM (inactive) each time. Further, the GI50 in the assay on UACC-257 and in the assay on 786-0 was > 100 µM (inactive) throughout.

As to `CCOC(=O)c1ccc(/N=c2\oc3ccc(OC)cc3cc2-c2nc3ccccc3[nH]2)cc1`, the GI50 in the assay on RPMI-8226 is > 100 µM (inactive); with IGROV-1, > 100 µM (inactive); in the assay with COLO 205, 73.5 µM (inactive); in the assay on LOX IMVI it was > 100 µM (inactive); in the assay with HOP-92 it was > 100 µM (inactive); in the assay with OVCAR-5 it was 54.3 µM (inactive). The GI50 is 72.8 µM (inactive) in the assay on K562; 51.2 µM (inactive) in the assay with A549; 79.8 µM (inactive) in the assay on Hs-578T; 62.8 µM (inactive) in the assay with SF-295; > 100 µM (inactive) with HL-60; 40.6 µM (inactive) in the assay with RXF 393. Further, the GI50 is 73.8 µM (inactive) in the assay on SK-OV-3; > 100 µM (inactive) with SF-268; 65.3 µM (inactive) in the assay on M14; 55 µM (inactive) in the assay on MDA-N; > 100 µM (inactive) in the assay on HT-29; > 100 µM (inactive) with UACC-257. The GI50 with 786-0 is > 100 µM (inactive).

For the molecule `Cc1[nH]nc(C(=O)N/N=C/c2ccccc2Cl)c1/N=N\N(C)C`, the GI50 in the assay with RPMI-8226 was 2.51 µM (inactive); in the assay with IGROV-1, 40.8 µM (inactive); in the assay on COLO 205, > 100 µM (inactive); with LOX IMVI it was > 76.4 µM (inactive); in the assay on HOP-92, > 23.9 µM (inactive); in the assay on OVCAR-5, 18 µM (inactive). For the same molecule, the GI50 is 0.802 µM (active) with K562; > 100 µM (inactive) in the assay with A549; 2.09 µM (inactive) in the assay with Hs-578T; > 54 µM (inactive) in the assay with SF-295; 4.82 µM (inactive) in the assay with HL-60; > 37.9 µM (inactive) with RXF 393. For the same molecule, the GI50 is > 100 µM (inactive) in the assay on SK-OV-3; > 100 µM (inactive) in the assay with SF-268; > 100 µM (inactive) in the assay on M14; > 53.3 µM (inactive) with HT-29; 2.19 µM (inactive) in the assay with A498; > 84.7 µM (inactive) in the assay with UACC-257. The GI50 with 786-0 was 5.04 µM (inactive).

`CC(NC(=O)c1ccc(OP(=O)(OCc2ccc([N+](=O)[O-])o2)N(C)CCCCCl)cc1)c1ccc(OCC2CCCCC2)c(C(N)=O)c1` (stereo not given): the concentration for 50% growth inhibition (GI50) in the assay on RPMI-8226 was 1.03 µM (active); in the assay on IGROV-1, 2.75 µM (inactive); in the assay with COLO 205, 2.61 µM (inactive); in the assay on LOX IMVI it was 1.87 µM (inactive); in the assay on HOP-92, 1.19 µM (inactive); in the assay on OVCAR-5 it was 15.2 µM (inactive). For the same molecule, the GI50 with K562 was 2.42 µM (inactive); in the assay on A549, 2.7 µM (inactive); in the assay on SF-295 it was 9.51 µM (inactive); in the assay with HL-60 it was 3.33 µM (inactive); in the assay with RXF 393, 2.25 µM (inactive); in the assay on SK-OV-3, > 33.1 µM (inactive). The GI50 in the assay with SF-268 was 2.67 µM (inactive); with M14 it was 3.67 µM (inactive); in the assay with MDA-N it was 2.97 µM (inactive); in the assay on HT-29 it was 2.63 µM (inactive); with A498, 12.9 µM (inactive); in the assay on UACC-257 it was 3.87 µM (inactive). In addition, the GI50 in the assay with 786-0 was 4.32 µM (inactive).

Source of the values: ChEMBL document CHEMBL1201862, “PubChem BioAssay data set” (2004).
